From ChEMBL document CHEMBL1123556, “Synthesis of antimicrobial agents. 1. Syntheses and antibacterial activities of 7-(azole substituted)quinolones” (J Med Chem, 1987)
Converted amounts (≈) assume the structure as drawn.

How the values were obtained:
Bacillus subtilis = assay: In vitro antibacterial activity against Bacillus subtilis ATCC 6633; type: functional
Klebsiella pneumoniae [1] = assay: microbe, parasite or virus in culture; type: functional
Proteus vulgaris = assay: In vitro antibacterial activity against Proteus vulgaris HX-19; type: functional
Escherichia coli = assay: In vitro antibacterial activity against Escherichia coli NIHJ JC-2; type: functional
Pseudomonas aeruginosa = assay: In vitro antibacterial activity against Pseudomonas aeruginosa IFO 3445; type: functional
[2] = test system: Staphylococcus epidermidis; assay: microbe, parasite or virus in culture; type: functional
Salmonella paratyphi [3] = assay: microbe, parasite or virus in culture; type: functional, Salmonella enterica subsp. enterica serovar Paratyphi A; settings: Salmonella enterica
Staphylococcus aureus = assay: In vitro antibacterial activity against Staphylococcus aureus FDA 209P JC-1; type: functional
[4] = In vivo acute toxicity against Escherichia coli (KC-14) was determined for the compound administered intravenously; type: organism-based; settings: mouse, iv
[5] = In vivo acute toxicity against Escherichia coli (KC-14) was determined for the compound administered perorally; type: organism-based; settings: mouse, po
[6] = Concentrations in serum after 30 minutes at 50 mg / kg oral administration; type: ADME, cell-free
[7] = Total serum concentrations at 0 to 4 hours interval was determined by 50 mg / kg oral administration; type: ADME, cell-free
[8] = Concentrations in serum after 240 minutes at 50 mg / kg oral administration; type: ADME
[9] = Concentrations in serum after 120 minutes at 50 mg / kg oral administration; type: ADME, cell-free
Mus musculus = assay: In vivo antibacterial activity against Escherichia coli (KC-14) was determined for the compound administered perorally; Value ranges from […]-[…]; type: functional; settings: po
[10] = Concentrations in serum after 60 minutes at 50 mg / kg oral administration; type: ADME, cell-free
[11] = test system: Staphylococcus epidermidis; assay: In vitro antibacterial activity against Staphylococcus epidermidis IAM 1576; type: functional
Salmonella paratyphi [12] = assay: In vitro antibacterial activity against Salmonella paratyphi 1015; type: functional, Salmonella enterica subsp. enterica serovar Paratyphi A; settings: Salmonella enterica
Klebsiella pneumoniae [13] = assay: In vitro antibacterial activity against Klebsiella pneumoniae PCI-602; type: functional

SMILES	MIC (Bacillus subtilis) [µg/mL]	MIC (Klebsiella pneumoniae [1]) [µg/mL]	MIC (Proteus vulgaris) [µg/mL]	MIC (Escherichia coli) [µg/mL]	MIC (Pseudomonas aeruginosa) [µg/mL]	MIC [2] [µg/mL]	MIC (Salmonella paratyphi [3]) [µg/mL]	MIC (Staphylococcus aureus) [µg/mL]	LD50 [4] [mg/kg]	LD50 [5] [mg/kg]	concentration at 0.5 h [6] [ng/mL]	Concentration in serum [7] [ng/mL]	concentration at 4 h [8] [ng/mL]	concentration at 2 h [9] [ng/mL]	ED50 (Mus musculus) [mg/kg]	concentration at 1 h [10] [ng/mL]	MIC [11] [µg/mL]	MIC (Salmonella paratyphi [12]) [µg/mL]	MIC (Klebsiella pneumoniae [13]) [µg/mL]
CCn1cc(C(=O)O)c(=O)c2cc(F)c(-n3cnc(C(=O)OC)c3)c(F)c21	12.5 (≈ 33.1 µM)	3.13 (≈ 8.3 µM)	1.56 (≈ 4.13 µM)	25 (≈ 66.3 µM)	25 (≈ 66.3 µM)	25 (≈ 66.3 µM)	3.13 (≈ 8.3 µM)	25 (≈ 66.3 µM)	–	–	–	–	–	–	–	–	–	–	–
CCn1cc(C(=O)O)c(=O)c2cc(F)c(N3CCNCC3)c(F)c21	–	–	–	–	–	–	–	–	193	1070	–	–	–	–	–	–	–	–	–
CCn1cc(C(=O)O)c(=O)c2cc(F)c(-n3ccnc3C)c(F)c21	0.78 (≈ 2.34 µM)	0.39 (≈ 1.17 µM)	0.2 (≈ 0.6 µM)	3.13 (≈ 9.39 µM)	25 (≈ 75 µM)	25 (≈ 75 µM)	0.39 (≈ 1.17 µM)	6.25 (≈ 18.8 µM)	–	–	–	–	–	–	–	–	–	–	–
CCn1cc(C(=O)O)c(=O)c2cc(F)c(-n3cccc3)c(F)c21	0.05 (≈ 0.157 µM)	0.2 (≈ 0.628 µM)	0.1 (≈ 0.314 µM)	3.13 (≈ 9.83 µM)	12.5 (≈ 39.3 µM)	1.56 (≈ 4.9 µM)	0.2 (≈ 0.628 µM)	0.39 (≈ 1.23 µM)	–	–	10700	17200	1650	3230	11.7	7070	–	–	–
CCn1cc(C(=O)O)c(=O)c2cc(F)c(-n3cnnc3)cc21	25 (≈ 82.7 µM)	12.5 (≈ 41.4 µM)	25 (≈ 82.7 µM)	25 (≈ 82.7 µM)	25 (≈ 82.7 µM)	25 (≈ 82.7 µM)	3.13 (≈ 10.4 µM)	25 (≈ 82.7 µM)	–	–	–	–	–	–	–	–	–	–	–
CCn1cc(C(=O)O)c(=O)c2cc(F)c(-n3cnc(CO)c3)c(F)c21	6.25 (≈ 17.9 µM)	0.78 (≈ 2.23 µM)	0.78 (≈ 2.23 µM)	6.25 (≈ 17.9 µM)	25 (≈ 71.6 µM)	25 (≈ 71.6 µM)	0.39 (≈ 1.12 µM)	25 (≈ 71.6 µM)	–	–	–	–	–	–	–	–	–	–	–
CCn1cc(C(=O)O)c(=O)c2cc(F)c(-n3cnc4ccccc43)c(F)c21	0.05 (≈ 0.135 µM)	0.39 (≈ 1.06 µM)	0.78 (≈ 2.11 µM)	1.56 (≈ 4.22 µM)	12.5 (≈ 33.8 µM)	1.56 (≈ 4.22 µM)	0.78 (≈ 2.11 µM)	0.2 (≈ 0.542 µM)	–	–	–	–	–	–	–	–	–	–	–
CCn1cc(C(=O)O)c(=O)c2cc(F)c(-n3cnc(C=O)c3)c(F)c21	0.78 (≈ 2.25 µM)	–	0.2 (≈ 0.576 µM)	0.78 (≈ 2.25 µM)	25 (≈ 72 µM)	–	–	3.13 (≈ 9.01 µM)	–	–	–	–	–	–	–	–	25 (≈ 72 µM)	0.2 (≈ 0.576 µM)	0.2 (≈ 0.576 µM)
CCn1cc(C(=O)O)c(=O)c2cc(F)c(-n3cnc(Br)c3)c(F)c21	0.2 (≈ 0.502 µM)	–	0.2 (≈ 0.502 µM)	1.56 (≈ 3.92 µM)	25 (≈ 62.8 µM)	–	–	0.78 (≈ 1.96 µM)	–	–	–	–	–	–	–	–	6.25 (≈ 15.7 µM)	0.2 (≈ 0.502 µM)	0.2 (≈ 0.502 µM)
CCn1cc(C(=O)O)c(=O)c2cc(F)c(-n3cnc([N+](=O)[O-])c3)c(F)c21	0.39 (≈ 1.07 µM)	0.39 (≈ 1.07 µM)	3.13 (≈ 8.59 µM)	6.25 (≈ 17.2 µM)	25 (≈ 68.6 µM)	6.25 (≈ 17.2 µM)	1.56 (≈ 4.28 µM)	1.56 (≈ 4.28 µM)	–	–	–	–	–	–	–	–	–	–	–
CCn1cc(C(=O)O)c(=O)c2cc(F)c(-n3cccn3)cc21	0.78 (≈ 2.59 µM)	0.78 (≈ 2.59 µM)	0.39 (≈ 1.29 µM)	12.5 (≈ 41.5 µM)	25 (≈ 83 µM)	25 (≈ 83 µM)	0.39 (≈ 1.29 µM)	6.25 (≈ 20.7 µM)	–	–	–	–	–	–	–	–	–	–	–
